Measurements: paper PMC7115530 (European Journal of Medicinal Chemistry, 2012)

Molecular target: SARS-CoV 3CL^pro (Severe acute respiratory syndrome coronavirus, UniProt P0C6X7)
Type: biochemical

For `CC(C)C[C@H](NC(=O)[C@@H](NC(=O)[C@H](C)NC(=O)OCc1ccccc1)C(C)C)C(=O)N[C@H](C#N)CCC(N)=O` [Cbz-AVLQ-CN], the “increase in potency over the other inhibitors tested” value was about 10 fold.
